Measurements published in patent US20040071747A1, “Cosmetics” (priority 2001, published 2004).

Test: Solubility in water or squalane by visual observation
Assay type: physicochemical
Design: key: ∘: Completely dissolved; x: Separated or precipitated without dissolution
Conditions: 25° C.
Procedure: Solubilityies of 1% by weight of components (1) to (5), and those of 0.01% by weight of components (6) and (7) were examined by visual observation of the dissolving states of the components mixed at 25° C. with water or squalane.

Solubility in Squalane (0.01% by weight) | Solubility in Water (0.01% by weight) | Solubility in Squalane (1% by weight) | Solubility in Water (1% by weight) | Structure (SMILES)
x | ∘ |  |  | CCN(Cc1cccc(S(=O)(=O)[O-])c1)c1ccc(C(=C2C=CC(=[N+](CC)Cc3cccc(S(=O)(=O)[O-])c3)C=C2)c2ccccc2S(=O)(=O)[O-])cc1.[Na+].[Na+] [Blue No.1]
 |  | x | ∘ | CC1(C)[C@@H](O[C@H]2O[C@H](C(=O)[O-])[C@@H](O)[C@H](O)[C@H]2O[C@@H]2O[C@H](C(=O)[O-])[C@@H](O)[C@H](O)[C@H]2O)CC[C@]2(C)[C@H]3C(=O)C=C4[C@@H]5C[C@@](C)(C(=O)O)CC[C@]5(C)CC[C@@]4(C)[C@]3(C)CC[C@@H]12.[K+].[K+] [Dipotassium Glycyrrhizinate]
x | ∘ |  |  | Cc1ccc(Nc2ccc(O)c3c2C(=O)c2ccccc2C3=O)c(S(=O)(=O)[O-])c1.[Na+] [Purple No.401]
